SMILES strings stand for the structures. Where two headings read alike, the source gives them in different places.

The test system of one assay is U937. As to the kind of experiment: Proliferation assay (resazurin/MTT), U937. Format: cell-based. To be noted: Homo sapiens, U-937, read-out: 72 h Growth inhibition GI50, U937 cells.
The target of another assay is CDK4/D1 (Homo sapiens, UniProt P11802). Put plainly: ADP Glo kinase assay, CDK4/D1. Format: biochemical. As to conditions: CDK4D1; for remaining activity at 1 µM: compound at 1 μM (values marked *), read-out: residual enzymatic activity (%) at 1 μM*; for remaining activity at 10 µM: compound at 10 μM, read-out: residual enzymatic activity (%) at 10 μM. In general terms: ADP-Glo first removes unused ATP, then detects ADP through luciferase.
CDK4/D1, sequence (P11802 whole entry, species assumed): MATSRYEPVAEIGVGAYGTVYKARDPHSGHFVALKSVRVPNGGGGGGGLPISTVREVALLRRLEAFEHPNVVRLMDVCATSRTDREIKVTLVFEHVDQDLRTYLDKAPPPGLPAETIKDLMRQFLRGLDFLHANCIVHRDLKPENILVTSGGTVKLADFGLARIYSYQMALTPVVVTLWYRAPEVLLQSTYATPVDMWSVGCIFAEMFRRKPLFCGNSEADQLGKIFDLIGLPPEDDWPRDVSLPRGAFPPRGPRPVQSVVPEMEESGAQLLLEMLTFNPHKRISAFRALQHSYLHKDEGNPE
CDK4/D1, sequence (P24385 whole entry partner, species assumed): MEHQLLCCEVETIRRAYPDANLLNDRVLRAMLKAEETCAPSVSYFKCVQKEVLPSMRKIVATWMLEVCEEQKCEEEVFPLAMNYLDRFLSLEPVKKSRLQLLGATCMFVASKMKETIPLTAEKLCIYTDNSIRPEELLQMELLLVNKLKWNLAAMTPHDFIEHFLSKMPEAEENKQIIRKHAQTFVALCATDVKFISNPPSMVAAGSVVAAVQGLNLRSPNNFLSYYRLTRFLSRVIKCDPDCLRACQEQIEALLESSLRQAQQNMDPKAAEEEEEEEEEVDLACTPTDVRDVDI

Another assay addresses CDK2E1 (Homo sapiens, UniProt P24941). To be noted: 1 µM.
A further assay concerns the target CDK6/D3 (Homo sapiens, UniProt Q00534). Put plainly: ADP Glo kinase assay, CDK6/D3. To be noted: CDK6D3; for remaining activity at 1 µM: compound at 1 μM (values marked *), read-out: residual enzymatic activity (%) at 1 μM*; for remaining activity at 10 µM: compound at 10 μM, read-out: residual enzymatic activity (%) at 10 μM. It is filed as biochemical.
A further assay has as its system MV-4-11. As to the kind of experiment: Proliferation assay (resazurin/MTT), MV-4-11. As to conditions: Homo sapiens, MV4-11, read-out: 72 h Growth inhibition GI50, MV-4-11 cells. Format: cell-based. On the technique in general: Alamar Blue is a resazurin reagent that responds to reducing activity.
A further assay deals with CDK9/CyclinT1 (Homo sapiens, UniProt P50750). As to the kind of experiment: ADP Glo kinase assay, CDK9/CyclinT1. It is filed as biochemical. To be noted: CDK9T1; for remaining activity at 1 µM: compound at 1 μM (values marked *), read-out: residual enzymatic activity (%) at 1 μM*; for Ki: apparent Ki calculated from Km (ATP) and IC50, read-out: CDK inhibition Ki; for remaining activity at 10 µM: compound at 10 μM, read-out: residual enzymatic activity (%) at 10 μM.
CDK9/CyclinT1, sequence (P50750 whole entry, species assumed): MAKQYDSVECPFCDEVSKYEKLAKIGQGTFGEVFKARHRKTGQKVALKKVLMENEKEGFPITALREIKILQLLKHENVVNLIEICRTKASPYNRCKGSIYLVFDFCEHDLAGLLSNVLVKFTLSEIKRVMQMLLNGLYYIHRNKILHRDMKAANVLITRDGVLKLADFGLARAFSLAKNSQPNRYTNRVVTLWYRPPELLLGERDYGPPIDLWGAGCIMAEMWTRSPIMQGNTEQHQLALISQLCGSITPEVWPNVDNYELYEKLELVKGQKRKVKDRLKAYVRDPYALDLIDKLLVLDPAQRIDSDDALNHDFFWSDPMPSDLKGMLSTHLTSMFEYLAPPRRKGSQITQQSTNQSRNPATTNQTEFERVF
CDK9/CyclinT1, sequence (O60563 whole entry partner, species assumed): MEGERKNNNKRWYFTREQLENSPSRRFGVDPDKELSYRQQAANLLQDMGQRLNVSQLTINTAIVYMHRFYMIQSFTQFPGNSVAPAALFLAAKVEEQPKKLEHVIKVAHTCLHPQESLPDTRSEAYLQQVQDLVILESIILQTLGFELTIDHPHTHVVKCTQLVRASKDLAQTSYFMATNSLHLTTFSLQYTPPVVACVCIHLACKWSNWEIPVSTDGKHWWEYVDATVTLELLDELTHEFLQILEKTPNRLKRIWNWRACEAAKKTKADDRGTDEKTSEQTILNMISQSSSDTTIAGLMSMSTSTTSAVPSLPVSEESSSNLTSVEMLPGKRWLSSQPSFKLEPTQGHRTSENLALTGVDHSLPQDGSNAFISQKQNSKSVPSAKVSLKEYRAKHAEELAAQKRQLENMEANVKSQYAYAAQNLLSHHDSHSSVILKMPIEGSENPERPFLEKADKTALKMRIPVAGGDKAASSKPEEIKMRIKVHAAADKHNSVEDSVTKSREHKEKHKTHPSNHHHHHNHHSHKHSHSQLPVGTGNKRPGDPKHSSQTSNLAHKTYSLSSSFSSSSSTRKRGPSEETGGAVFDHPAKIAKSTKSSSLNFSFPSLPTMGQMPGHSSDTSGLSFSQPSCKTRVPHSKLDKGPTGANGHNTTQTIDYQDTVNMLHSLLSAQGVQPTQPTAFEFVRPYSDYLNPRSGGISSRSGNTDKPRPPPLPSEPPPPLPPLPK

Another assay addresses CDK1B (Homo sapiens, UniProt P06493).
In the next assay the target is CDK7HMAT1 (Homo sapiens, UniProt P50613).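 Further: kinase activity measured with an ADP-Glo luminescent kinase assay.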
CDK7HMAT1, sequence (P50613 whole entry): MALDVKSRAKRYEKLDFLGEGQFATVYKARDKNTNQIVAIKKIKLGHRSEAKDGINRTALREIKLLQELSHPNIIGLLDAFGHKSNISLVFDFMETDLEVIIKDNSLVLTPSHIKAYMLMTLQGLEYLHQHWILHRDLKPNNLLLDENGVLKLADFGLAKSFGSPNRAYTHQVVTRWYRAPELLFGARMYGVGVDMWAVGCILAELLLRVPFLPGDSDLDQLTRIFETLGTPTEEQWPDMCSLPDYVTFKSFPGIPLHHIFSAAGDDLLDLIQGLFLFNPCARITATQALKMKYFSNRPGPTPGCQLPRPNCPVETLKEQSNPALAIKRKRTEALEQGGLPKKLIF
CDK7HMAT1, sequence (P51946 whole entry partner): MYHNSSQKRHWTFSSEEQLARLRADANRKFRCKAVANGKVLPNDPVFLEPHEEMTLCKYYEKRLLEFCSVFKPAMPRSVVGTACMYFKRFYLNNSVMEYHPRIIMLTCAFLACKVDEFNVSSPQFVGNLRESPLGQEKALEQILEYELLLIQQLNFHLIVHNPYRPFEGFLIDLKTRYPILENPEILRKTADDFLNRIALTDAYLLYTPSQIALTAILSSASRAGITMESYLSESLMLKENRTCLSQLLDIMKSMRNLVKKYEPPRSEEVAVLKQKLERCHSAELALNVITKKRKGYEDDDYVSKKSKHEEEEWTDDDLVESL
CDK7HMAT1, sequence (P51948 whole entry partner): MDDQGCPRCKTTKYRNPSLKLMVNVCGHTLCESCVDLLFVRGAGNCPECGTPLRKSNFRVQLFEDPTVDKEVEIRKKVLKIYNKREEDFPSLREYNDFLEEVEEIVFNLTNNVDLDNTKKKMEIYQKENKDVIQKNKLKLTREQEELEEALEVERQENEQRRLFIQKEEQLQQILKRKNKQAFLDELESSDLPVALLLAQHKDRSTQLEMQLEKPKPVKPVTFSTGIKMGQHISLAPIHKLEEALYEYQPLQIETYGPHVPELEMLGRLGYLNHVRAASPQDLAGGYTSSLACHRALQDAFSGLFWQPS

CDK1B, sequence (P06493 whole entry): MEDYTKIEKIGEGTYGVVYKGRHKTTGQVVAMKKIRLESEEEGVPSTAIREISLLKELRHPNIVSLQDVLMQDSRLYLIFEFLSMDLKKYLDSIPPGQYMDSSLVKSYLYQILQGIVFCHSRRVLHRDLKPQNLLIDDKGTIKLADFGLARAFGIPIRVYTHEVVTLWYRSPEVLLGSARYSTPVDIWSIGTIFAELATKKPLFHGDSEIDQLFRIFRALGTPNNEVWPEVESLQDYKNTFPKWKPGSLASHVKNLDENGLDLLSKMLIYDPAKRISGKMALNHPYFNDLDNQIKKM
CDK1B, sequence (P14635 whole entry partner): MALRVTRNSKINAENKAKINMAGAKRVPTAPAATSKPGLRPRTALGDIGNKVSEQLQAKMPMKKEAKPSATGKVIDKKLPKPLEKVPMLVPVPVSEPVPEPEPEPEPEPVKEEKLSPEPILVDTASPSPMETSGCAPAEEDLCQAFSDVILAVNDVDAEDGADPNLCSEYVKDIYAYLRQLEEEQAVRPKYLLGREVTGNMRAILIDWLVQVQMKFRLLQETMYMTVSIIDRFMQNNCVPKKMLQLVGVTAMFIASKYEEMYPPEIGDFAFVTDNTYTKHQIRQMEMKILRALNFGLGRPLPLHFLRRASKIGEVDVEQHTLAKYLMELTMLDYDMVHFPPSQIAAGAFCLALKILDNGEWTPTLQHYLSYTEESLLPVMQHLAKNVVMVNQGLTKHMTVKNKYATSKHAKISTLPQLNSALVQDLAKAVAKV
CDK6/D3, sequence (Q00534 whole entry, species assumed): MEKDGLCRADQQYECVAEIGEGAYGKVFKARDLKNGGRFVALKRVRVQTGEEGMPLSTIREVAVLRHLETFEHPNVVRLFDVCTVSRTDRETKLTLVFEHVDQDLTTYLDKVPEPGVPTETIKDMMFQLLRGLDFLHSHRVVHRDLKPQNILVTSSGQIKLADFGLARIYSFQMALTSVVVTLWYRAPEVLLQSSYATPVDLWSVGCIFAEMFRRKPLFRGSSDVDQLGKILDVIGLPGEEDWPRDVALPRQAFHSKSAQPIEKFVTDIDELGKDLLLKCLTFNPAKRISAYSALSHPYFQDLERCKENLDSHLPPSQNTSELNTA
CDK6/D3, sequence (P30281 whole entry partner, species assumed): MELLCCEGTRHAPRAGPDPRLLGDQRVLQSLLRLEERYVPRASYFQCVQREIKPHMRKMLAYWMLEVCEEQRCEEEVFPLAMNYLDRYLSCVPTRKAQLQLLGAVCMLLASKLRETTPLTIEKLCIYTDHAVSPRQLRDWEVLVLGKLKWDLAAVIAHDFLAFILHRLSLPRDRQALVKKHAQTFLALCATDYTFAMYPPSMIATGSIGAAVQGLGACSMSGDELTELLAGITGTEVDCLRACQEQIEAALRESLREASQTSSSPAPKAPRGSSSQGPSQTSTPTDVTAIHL
Description for CDK7HMAT1: Inhibition of FLT3(WT), FLT3(ITD) and FLT3(D835Y) and CDKs were determined using ADP Glo Kinase assays (Promega Corporation, Madison, WI, USA). […] The kinase reactions are run for an optimised time period (FLT3-WT: 120 min, FLT3-ITD: 80 min, FLT3-D835Y: 100 min) at room temperature and then the reaction was stopped by adding 5 μL of ADP Glo reagent. […] Positive and negative controls were performed in 0.5% DMSO in the presence and absence of each FLT3 kinase, respectively. […] Half-maximal inhibition (IC50) values were calculated using a 4-parameter logistic non-linear regression model with Graphpad prism (Version 6.0). Apparent inhibition constants (Ki) values were calculated from Km (ATP) and IC50 values for the respective kinases.

As to `CC(=O)N1CCN(c2ccc(Nc3nccc(-c4cnc5ccc(-c6cnn(C)c6)cn45)n3)nc2)CC1` [Cmpd 27, 1-(4-(6-((4-(6-(1-Methyl-1H-pyrazol-4-yl)imidazo[1,2-a]pyridin-3-yl)pyrimidin-2-yl)amino)pyridin-3-yl)piperazin-1-yl)ethan-1-one], the GI50 (commonly the concentration giving 50% growth inhibition) amounted to 0.883 µM in the assay on U937 and 0.002 µM in the assay with MV-4-11. The remaining activity at 1 µM was found to be 70% on CDK4/D1, 70% on CDK6/D3 and 31% at CDK9/CyclinT1. Moreover, the activity amounted to 89% at CDK2E1, 88% on CDK1B (1 µM) and 93% on CDK7HMAT1 (1 µM).
Consider `CC(=O)N1CCN(c2ccc(Nc3nccc(-c4cnc5ccc(-c6ccsc6)cn45)n3)nc2)CC1` [Cmpd 26, 1-(4-(6-((4-(6-(Thiophen-3-yl)imidazo[1,2-a]pyridin-3-yl)pyrimidin-2-yl)amino)pyridin-3-yl)piperazin-1-yl)ethan-1-one], for which the GI50 was determined as 0.538 µM in the assay on U937 and 0.004 µM with MV-4-11. Moreover, the results for the remaining activity at 1 µM at CDK4/D1, at CDK6/D3 and on CDK9/CyclinT1 were 73%, 73% and 36%, respectively. Further, the activity worked out at 73% on CDK2E1, 95% at CDK1B (1 µM) and 83% at CDK7HMAT1 (1 µM).
Take `CC(=O)N1CCN(c2ccc(Nc3nccc(-c4cnc5ccc(-c6cc7ccccc7s6)cn45)n3)nc2)CC1` [Cmpd 22, 1-(4-(6-((4-(6-(Benzo[b]thiophen-2-yl)imidazo[1,2-a]pyridin-3-yl)pyrimidin-2-yl)amino)pyridin-3-yl)piperazin-1-yl)ethan-1-one]: the GI50 in the assay with U937 is over 10 µM; with MV-4-11, 0.002 µM. Further, the remaining activity at 10 µM at CDK4/D1 was determined as 64%; at CDK6/D3 it was 102%. Also, the activity at CDK2E1 stood at 83%; on CDK1B (10 µM), 100%; on CDK7HMAT1 (10 µM), 106%. Further, the Ki at CDK9/CyclinT1 is over 5 µM.
As for `CC(=O)N1CCN(c2ccc(Nc3nccc(-c4cnc5ccc(-c6cc[nH]c6)cn45)n3)nc2)CC1` [Cmpd 23, 1-(4-(6-((4-(6-(1H-Pyrrol-3-yl)imidazo[1,2-a]pyridin-3-yl)pyrimidin-2-yl)amino)pyridin-3-yl)piperazin-1-yl)ethan-1-one], the values for the GI50 with U937 and with MV-4-11 were 0.323 µM and 0.001 µM, respectively. Moreover, the remaining activity at 10 µM on CDK4/D1 came out at 50%; at CDK6/D3, 71%. The activity was found to be 76% on CDK2E1, 59% on CDK1B (10 µM) and 55% on CDK7HMAT1 (10 µM). On CDK9/CyclinT1, the Ki is 0.421 µM.
`CC(=O)N1CCN(c2ccc(Nc3nccc(-c4cnc5ccc(-c6cc7ccccc7o6)cn45)n3)nc2)CC1` [Cmpd 21, 1-(4-(6-((4-(6-(Benzofuran-2-yl)imidazo[1,2-a]pyridin-3-yl)pyrimidin-2-yl)amino)pyridin-3-yl)piperazin-1-yl)ethan-1-one]: the GI50 in the assay with U937 was 4.56 µM; with MV-4-11 it was 0.017 µM. Further, the results for the remaining activity at 10 µM at CDK4/D1 and at CDK6/D3 were 78% and 102%, respectively. Besides, the activity at CDK2E1 came to 86%; at CDK1B (10 µM) it was 95%; at CDK7HMAT1 (10 µM) it was 97%. Besides, at CDK9/CyclinT1, the Ki is over 5 µM.
In the case of `CC(=O)N1CCN(c2ccc(Nc3nccc(-c4cnc5ccc(Nc6ccccc6)cn45)n3)nc2)CC1` [Cmpd 28, 1-(4-(6-((4-(6-(Phenylamino)imidazo[1,2-a]pyridin-3-yl)pyrimidin-2-yl)amino)pyridin-3-yl)piperazin-1-yl)ethan-1-one], the GI50 in the assay on U937 is 1.49 µM; in the assay with MV-4-11, 0.006 µM. The remaining activity at 1 µM on CDK4/D1 stood at 77%; at CDK6/D3, 80%; on CDK9/CyclinT1 it was 61%. Further, the activity at CDK2E1 came to 86%; on CDK1B (1 µM), 98%; at CDK7HMAT1 (1 µM) it was 91%.
Take `CC(=O)N1CCN(c2ccc(Nc3ncc(F)c(-c4cnc5ccc(C(F)(F)F)cn45)n3)nc2)CC1` [Cmpd 32, 1-(4-(6-((5-Fluoro-4-(6-(trifluoromethyl)imidazo[1,2-a]pyridin-3-yl)pyrimidin-2-yl)amino)pyridin-3-yl)piperazin-1-yl)ethan-1-one]: the results for the GI50 in the assay with U937 and with MV-4-11 were 0.821 µM and 0.024 µM, respectively. The remaining activity at 1 µM at CDK4/D1 stood at 67%; on CDK6/D3 it was 70%; at CDK9/CyclinT1, 82%. The activity at CDK2E1 came out at 65%; on CDK1B (1 µM), 93%; on CDK7HMAT1 (1 µM), 84%.
As to `COc1ncc(-c2ccc3ncc(-c4ccnc(Nc5ccc(N6CCN(C(C)=O)CC6)cn5)n4)n3c2)cn1` [Cmpd 19, 1-(4-(6-((4-(6-(2-Methoxypyrimidin-5-yl)imidazo[1,2-a]pyridin-3-yl)pyrimidin-2-yl)amino)pyridin-3-yl)piperazin-1-yl)ethan-1-one], the GI50 worked out at 6.71 µM with U937 and 0.017 µM with MV-4-11. Also, the remaining activity at 10 µM on CDK4/D1 is 53%; on CDK6/D3 it was 65%; on CDK9/CyclinT1, 33%. Also, the activity on CDK2E1 was found to be 82%; on CDK1B (10 µM) it was 96%; on CDK7HMAT1 (10 µM) it was 54%.
Regarding `CC(=O)N1CCN(c2ccc(Nc3nccc(-c4cnc5ccc(-c6ccccc6)cn45)n3)nc2)CC1` [Cmpd 14, 1-(4-(6-((4-(6-Phenylimidazo[1,2-a]pyridin-3-yl)pyrimidin-2-yl)amino)pyridin-3-yl)piperazin-1-yl)ethan-1-one], the results for the GI50 with U937 and with MV-4-11 were 0.664 µM and 0.007 µM, respectively. For the same molecule, the remaining activity at 10 µM at CDK4/D1 turned out to be 69%; on CDK6/D3 it was 92%. Besides, the activity on CDK2E1 stood at 56%; on CDK1B (10 µM), 94%; at CDK7HMAT1 (10 µM) it was 78%. Besides, the Ki at CDK9/CyclinT1 was 0.699 µM.
Consider `CC(=O)N1CCCN(c2ccc(Nc3nccc(-c4cnc5ccccn45)n3)nc2)CC1` [Cmpd 6, 1-(4-(6-((4-(Imidazo[1,2-a]pyridin-3-yl)pyrimidin-2-yl)amino)pyridin-3-yl)-1,4-diazepan-1-yl)ethan-1-one], for which the figures for the GI50 in the assay on U937 and in the assay with MV-4-11 were 11.4 µM and 0.035 µM, respectively. In addition, the results for the remaining activity at 10 µM on CDK4/D1 and on CDK6/D3 were 48% and 24%, respectively. The activity turned out to be 85% on CDK2E1, 50% at CDK1B (10 µM) and 70% on CDK7HMAT1 (10 µM). Besides, the Ki on CDK9/CyclinT1 is 1.38 µM.
For `CC(=O)N1CCN(c2ccc(Nc3nccc(-c4cnc5ccc(F)cn45)n3)nc2)CC1` [Cmpd 8, 1-(4-(6-((4-(6-Fluoroimidazo[1,2-a]pyridin-3-yl)pyrimidin-2-yl)amino)pyridin-3-yl)piperazin-1-yl)ethan-1-one], the GI50 in the assay on U937 came out at 1.41 µM; in the assay on MV-4-11, 0.03 µM. The values for the remaining activity at 10 µM on CDK4/D1 and at CDK6/D3 were 27% and 40%, respectively. In addition, the activity came to 59% on CDK2E1, 27% at CDK1B (10 µM) and 82% at CDK7HMAT1 (10 µM). Also, the Ki on CDK9/CyclinT1 was 0.289 µM.
For the molecule `CC(=O)N1CCN(c2ccc(Nc3nccc(-c4cnc5ccc(-c6coc7ccccc67)cn45)n3)nc2)CC1` [Cmpd 33, 1-(4-(6-((4-(6-(Benzofuran-3-yl)imidazo[1,2-a]pyridin-3-yl)pyrimidin-2-yl)amino)pyridin-3-yl)piperazin-1-yl)ethan-1-one], the figures for the GI50 in the assay with U937 and with MV-4-11 were 1.86 µM and 0.003 µM, respectively. For the same molecule, the remaining activity at 1 µM was 60% on CDK4/D1, 79% at CDK6/D3 and 72% at CDK9/CyclinT1. In addition, the activity was 84% at CDK2E1, 98% at CDK1B (1 µM) and 88% at CDK7HMAT1 (1 µM).
On to `CC(=O)N1CCN(c2ccc(Nc3nccc(-c4cnc5ccc(-c6cn(S(=O)(=O)c7ccccc7)c7ccccc67)cn45)n3)nc2)CC1` [Cmpd 34, 1-(4-(6-((4-(6-(1-(Phenylsulfonyl)-1H-indol-3-yl)imidazo[1,2-a]pyridin-3-yl)pyrimidin-2-yl)amino)pyridin-3-yl)piperazin-1-yl)ethan-1-one], for which the GI50 worked out at 2.49 µM in the assay with U937 and 0.066 µM in the assay on MV-4-11. In addition, the remaining activity at 1 µM came to 55% on CDK4/D1, 77% at CDK6/D3 and 100% on CDK9/CyclinT1. In addition, the activity is 75% on CDK2E1, 99% on CDK1B (1 µM) and 80% at CDK7HMAT1 (1 µM).
In the case of `CC(=O)N1CCN(c2ccc(Nc3nccc(-c4cnc5ccc(-c6ccco6)cn45)n3)nc2)CC1` [Cmpd 12, 1-(4-(6-((4-(6-(Furan-2-yl)imidazo[1,2-a]pyridin-3-yl)pyrimidin-2-yl)amino)pyridin-3-yl)piperazin-1-yl)ethan-1-one], the GI50 is 0.4 µM in the assay on U937 and 0.009 µM in the assay on MV-4-11. For the same molecule, the remaining activity at 10 µM at CDK4/D1 is 93%; on CDK6/D3 it was 42%; at CDK9/CyclinT1, 29%. For the same molecule, the values for the activity on CDK2E1, on CDK1B (10 µM) and on CDK7HMAT1 (10 µM) were 67%, 70% and 86%, respectively.
